The values below come from patent US20100261719A1, “CHEMICAL COMPOUNDS” (priority 2007, published 2010).

This assay concerns the target Escherichia coli DNA gyrase A/B tetramer (Escherichia coli, UniProt P0AES4+P0AES6). Description: DNA gyrase supercoiling activity fluorescence polarisation assay. Format: biochemical. The method, then:
In a black, 384-well polystyrene assay plate, 30 microliters/well of 5 nM Escherichia coli DNA gyrase A/B tetramer and 130 micrograms/ml of topologically relaxed plasmid containing the triplex-forming sequence […] in an assay buffer consisting of 35 mM Tris-HCl (pH 7.5), 24 mM KCl, 4 mM MgCl2, 2 mM dithiothreitol, 1.8 mM spermidine, 5% (v/v) glycerol, 200 nM bovine serum albumin, 0.8% dimethylsulfoxide, and 0.3 mM ATP may be incubated at ambient temperature for (typically 30 minutes) in the absence or presence of 5-10 different concentrations of test compound. The supercoiling reactions may be quenched by the addition of 10 microliters/well of 40 nM oligodeoxynucleotide probe in 3× triplex-forming buffer consisting of 150 mM NaCl, and 150 mM sodium acetate at pH 3.5. The oligodeoxynucleotide probe may be 5′-BODIPY-FL-labeled TTCTTCTTC. After 60 minutes, the fluorescence anisotropy of the BODIPY-FL may be measured in a Tecan Ultra plate reader, using 485 nm excitation and 535 nm emission filters equipped with polarizers. The IC50 may be determined by nonliner regression using two control reactions. The first contains no test compound but 0.8% DMSO (100% activity) while the second control reaction contains 5 uM Ciprofloxacin and 0.8% DMSO (0% activity).
When tested in an in-vitro assay based on the DNA gyrase supercoiling activity fluorescence polarisation assay described above, the E. coli DNA gyrase supercoiling IC50 assay inhibitory activity of the following Examples was measured at the indicated IC50.
(In general: In fluorescence polarisation assays a small probe gives low polarisation when free and higher when bound to something large.)

Structures are written as SMILES.

Chain of Escherichia coli DNA gyrase A/B tetramer (P0AES4 whole entry, one chain of several): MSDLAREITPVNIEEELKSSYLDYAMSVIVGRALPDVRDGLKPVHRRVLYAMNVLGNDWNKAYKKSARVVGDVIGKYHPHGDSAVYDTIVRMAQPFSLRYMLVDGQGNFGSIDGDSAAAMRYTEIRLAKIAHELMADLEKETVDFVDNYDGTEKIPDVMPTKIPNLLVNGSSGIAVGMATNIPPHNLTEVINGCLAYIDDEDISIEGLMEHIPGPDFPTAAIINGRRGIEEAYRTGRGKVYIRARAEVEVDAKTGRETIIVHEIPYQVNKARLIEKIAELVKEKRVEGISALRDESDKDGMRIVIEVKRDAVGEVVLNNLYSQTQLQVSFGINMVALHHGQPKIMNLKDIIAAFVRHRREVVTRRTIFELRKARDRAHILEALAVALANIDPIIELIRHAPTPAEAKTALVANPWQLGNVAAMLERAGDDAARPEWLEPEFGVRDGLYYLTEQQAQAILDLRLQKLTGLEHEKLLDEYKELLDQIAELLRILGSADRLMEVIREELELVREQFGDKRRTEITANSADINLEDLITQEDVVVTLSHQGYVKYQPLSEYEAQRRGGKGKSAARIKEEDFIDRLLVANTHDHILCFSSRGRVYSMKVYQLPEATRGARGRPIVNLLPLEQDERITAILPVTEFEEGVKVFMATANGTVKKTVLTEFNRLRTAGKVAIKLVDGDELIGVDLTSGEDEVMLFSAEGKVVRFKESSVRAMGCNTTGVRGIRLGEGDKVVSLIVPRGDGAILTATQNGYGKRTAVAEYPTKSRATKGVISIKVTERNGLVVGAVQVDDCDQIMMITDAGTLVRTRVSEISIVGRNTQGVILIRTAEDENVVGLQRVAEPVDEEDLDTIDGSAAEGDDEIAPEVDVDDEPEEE

For orientation: IC50 means the concentration that inhibits the measured activity by half. The low end stands for greater potency in that assay, the high end for weaker potency in that assay. In turn, `C[C@@H]1CN2c3c(F)cc(C#Cc4cccs4)cc3CC3(C(=O)NC(=O)NC3=O)[C@H]2[C@H](C)O1` (relative stereo) [Example 40, (2R,4S,4aS)-rel-10-Fluoro-2,4-dimethyl-8-(thiophen-2-ylethynyl)-1,2,4,4a-tetrahydro-2′H,6H-spiro[1,4-oxazino[4,3-a]quinoline-5,5′-pyrimidine]-2′,4′,6′(1′H,3′H)-trione] came in with an IC50 of 1140 nM. That is a single-digit micromolar value. Then `C[C@@H]1CN2c3c(F)cc(C#Cc4cnccn4)cc3CC3(C(=O)NC(=O)NC3=O)[C@H]2[C@H](C)O1` (relative stereo) [Example 43, (2R,4S,4aS)-rel-10-Fluoro-2,4-dimethyl-8-(pyrazin-2-ylethynyl)-1,2,4,4a-tetrahydro-2′H,6H-spiro[1,4-oxazino[4,3-a]quinoline-5,5′-pyrimidine]-2′,4′,6′(1′H,3′H)-trione], with 1470 nM; and `C[C@@H]1CN2c3c(F)cc(C#Cc4cccnc4)cc3CC3(C(=O)NC(=O)NC3=O)[C@H]2[C@H](C)O1` (relative stereo) [Example 44, (2R,4S,4aS)-rel-10-Fluoro-2,4-dimethyl-8-(pyridin-3-ylethynyl)-1,2,4,4a-tetrahydro-2′H,6H-spiro[1,4-oxazino[4,3-a]quinoline-5,5′-pyrimidine]-2′,4′,6′(1′H,3′H)-trione], with 220 nM. The same measure for `Cc1nnc(C)n1/N=C/c1cc2c(c(F)c1F)N1C[C@@H](C)O[C@@H](C)[C@@H]1C1(C2)C(=O)NC(=O)NC1=O` (relative stereo) [Example 47, (2R,4S,4aS)-rel-8-{(E)-[(3,5-Dimethyl-4H-1,2,4-triazol-4-yl)imino]methyl}-9,10-difluoro-2,4-dimethyl-1,2,4,4a-tetrahydro-2′H,6H-spiro[1,4-oxazino[4,3-a]quinoline-5,5′-pyrimidine]-2′,4′,6′(1′H,3′H)-trione]: 3670 nM. Then `CC(=O)N/N=C(\C)c1cc2c(c(F)c1F)N1C[C@@H](C)O[C@@H](C)[C@@H]1C1(C2)C(=O)NC(=O)NC1=O` (relative stereo) [Example 48, N′-{(1E)-1-[(2R,4S,4aS)-rel-9,10-Difluoro-2,4-dimethyl-2′,4′,6′-trioxo-1,1′,2,3′,4,4′,4a,6′-octahydro-2′H,6H-spiro[1,4-oxazino[4,3-a]quinoline-5,5′-pyrimidin]-8-yl]ethylidene}acetohydrazide], with 1300 nM; and `C/C(=N\NC(=O)OC(C)(C)C)c1cc2c(c(F)c1F)N1C[C@@H](C)O[C@@H](C)[C@@H]1C1(C2)C(=O)NC(=O)NC1=O` (relative stereo) [Example 50, tert-Butyl (2E)-2-{1-[(2R,4S,4aS)-rel-9,10-difluoro-2,4-dimethyl-2′,4′,6′-trioxo-1,1′,2,3′,4,4′,4a,6′-octahydro-2′H,6H-spiro[1,4-oxazino[4,3-a]quinoline-5,5′-pyrimidin]-8-yl]ethylidene}hydrazinecarboxylate], with 2360 nM; and `C/C(=N\NC(=O)Nc1ccccc1)c1cc2c(c(F)c1F)N1C[C@@H](C)O[C@@H](C)[C@@H]1C1(C2)C(=O)NC(=O)NC1=O` (relative stereo) [Example 51, (2E)-2-{1-[(2R,4S,4aS)-rel-9,10-Difluoro-2,4-dimethyl-2′,4′,6′-trioxo-1,1′,2,3′,4,4′,4a,6′-octahydro-2′H,6H-spiro[1,4-oxazino[4,3-a]quinoline-5,5′-pyrimidin]-8-yl]ethylidene}-N-phenylhydrazinecarboxamide], with 5500 nM.

Take `C/C(=N\N1CC(=O)NC1=O)c1cc2c(c(F)c1F)N1C[C@@H](C)O[C@@H](C)[C@@H]1C1(C2)C(=O)NC(=O)NC1=O` (relative stereo) [Example 52, (2R,4S,4aS)-rel-8-[(1E)-N-(2,4-Dioxoimidazolidin-1-yl)ethanimidoyl]-9,10-difluoro-2,4-dimethyl-1,2,4,4a-tetrahydro-2′H,6H-spiro[1,4-oxazino[4,3-a]quinoline-5,5′-pyrimidine]-2′,4′,6′(1′H,3′H)-trione]: inhibition was half-maximal at 12800 nM (IC50).

`C/C(=N\NC(=O)CC#N)c1cc2c(c(F)c1F)N1C[C@@H](C)O[C@@H](C)[C@@H]1C1(C2)C(=O)NC(=O)NC1=O` (relative stereo) [Example 53, 2-Cyano-N′-{(1E)-1-[(2R,4S,4aS)-rel-9,10-difluoro-2,4-dimethyl-2′,4′,6′-trioxo-1,1′,2,3′,4,4′,4a,6′-octahydro-2′H,6H-spiro[1,4-oxazino[4,3-a]quinoline-5,5′-pyrimidin]-8-yl]ethylidene}acetohydrazide] came in with an IC50 of 1640 nM.

The molecule `C/C(=N\NC(N)=O)c1cc2c(c(F)c1F)N1C[C@@H](C)O[C@@H](C)[C@@H]1C1(C2)C(=O)NC(=O)NC1=O` (relative stereo) [Example 54, (2E)-2-{1-[(2R,4S,4aS)-rel-9,10-Difluoro-2,4-dimethyl-2′,4′,6′-trioxo-1,1′,2,3′,4,4′,4a,6′-octahydro-2′H,6H-spiro[1,4-oxazino[4,3-a]quinoline-5,5′-pyrimidin]-8-yl]ethylidene}hydrazinecarboxamide] showed a concentration for half-maximal inhibition (IC50) of 2300 nM. As to `COCC(=O)N/N=C(\C)c1cc2c(c(F)c1F)N1C[C@@H](C)O[C@@H](C)[C@@H]1C1(C2)C(=O)NC(=O)NC1=O` (relative stereo) [Example 55, N′-{(1E)-1-[(2R,4S,4aS)-rel-9,10-Difluoro-2,4-dimethyl-2′,4′,6′-trioxo-1,1′,2,3′,4,4′,4a,6′-octahydro-2′H,6H-spiro[1,4-oxazino[4,3-a]quinoline-5,5′-pyrimidin]-8-yl]ethylidene}-2-methoxyacetohydrazide], 7590 nM corresponded to half-maximal inhibition (IC50). As for `C/C(=N\NC(=O)C1CC1)c1cc2c(c(F)c1F)N1C[C@@H](C)O[C@@H](C)[C@@H]1C1(C2)C(=O)NC(=O)NC1=O` (relative stereo) [Example 56, N′-{(1E)-1-[(2R,4S,4aS)-rel-9,10-Difluoro-2,4-dimethyl-2′,4′,6′-trioxo-1,1′,2,3′,4,4′,4a,6′-octahydro-2′H,6H-spiro[1,4-oxazino[4,3-a]quinoline-5,5′-pyrimidin]-8-yl]ethylidene}cyclopropanecarbohydrazide], half-maximal inhibition (IC50) was put at 1870 nM. `C/C(=N\Nc1ccccn1)c1cc2c(c(F)c1F)N1C[C@@H](C)O[C@@H](C)[C@@H]1C1(C2)C(=O)NC(=O)NC1=O` (relative stereo) [Example 57, (2R,4S,4aS)-rel-9,10-Difluoro-2,4-dimethyl-8-{(1E)-1-[2-(pyridin-2-yl)hydrazinylidene]ethyl}-1,2,4,4a-tetrahydro-2′H,6H-spiro[1,4-oxazino[4,3-a]quinoline-5,5′-pyrimidine]-2′,4′,6′(1′H,3′H)-trione] yielded an IC50 of 850 nM. For the molecule `C/C(=N\Nc1ccccc1)c1cc2c(c(F)c1F)N1C[C@@H](C)O[C@@H](C)[C@@H]1C1(C2)C(=O)NC(=O)NC1=O` (relative stereo) [Example 58, (2R,4S,4aS)-rel-9,10-Difluoro-2,4-dimethyl-8-[(1E)-1-(2-phenylhydrazinylidene)ethyl]-1,2,4,4a-tetrahydro-2′H,6H-spiro[1,4-oxazino[4,3-a]quinoline-5,5′-pyrimidine]-2′,4′,6′(1′H,3′H)-trione], the half-maximal inhibitory concentration (IC50) came to 980 nM. The same measure for `C/C(=N\Nc1ncccn1)c1cc2c(c(F)c1F)N1C[C@@H](C)O[C@@H](C)[C@@H]1C1(C2)C(=O)NC(=O)NC1=O` (relative stereo) [Example 59, (2R,4S,4aS)-rel-9,10-Difluoro-2,4-dimethyl-8-{(1E)-1-[2-(pyrimidin-2-yl)hydrazinylidene]ethyl}-1,2,4,4a-tetrahydro-2′H,6H-spiro[1,4-oxazino[4,3-a]quinoline-5,5′-pyrimidine]-2′,4′,6′(1′H,3′H)-trione]: 1640 nM; for `C/C(=N\Nc1cnccn1)c1cc2c(c(F)c1F)N1C[C@@H](C)O[C@@H](C)[C@@H]1C1(C2)C(=O)NC(=O)NC1=O` (relative stereo) [Example 60, (2R,4S,4aS)-rel-9,10-Difluoro-2,4-dimethyl-8-{(1E)-1-[2-(pyrazin-2-yl)hydrazinylidene]ethyl}-1,2,4,4a-tetrahydro-2′H,6H-spiro[1,4-oxazino[4,3-a]quinoline-5,5′-pyrimidine]-2′,4′,6′(1′H,3′H)-trione]: 260 nM; for `C[C@@H]1CN2c3c(cc(C(=O)NC4CCOC4=O)c(F)c3F)CC3(C(=O)NC(=O)NC3=O)[C@H]2[C@H](C)O1` (relative stereo) [Example 61, (2R,4S,4aS)-rel-9,10-Difluoro-2,4-dimethyl-2′,4′,6′-trioxo-N-(2-oxotetrahydrofuran-3-yl)-1,1′,2,3′,4,4′,4a,6′-octahydro-2′H,6H-spiro[1,4-oxazino[4,3-a]quinoline-5,5′-pyrimidine]-8-carboxamide]: 4840 nM.

For `C[C@@H]1CN2c3c(cc(C(=O)NC4CCS(=O)(=O)C4)c(F)c3F)CC3(C(=O)NC(=O)NC3=O)[C@H]2[C@H](C)O1` (relative stereo) [Example 62, (2R,4S,4aS)-rel-N-(1,1-Dioxidotetrahydrothiophen-3-yl)-9,10-difluoro-2,4-dimethyl-2′,4′,6′-trioxo-1,1′,2,3′,4,4′,4a,6′-octahydro-2′H,6H-spiro[1,4-oxazino[4,3-a]quinoline-5,5′-pyrimidine]-8-carboxamide], inhibition was half-maximal at 7100 nM (IC50).
